Read-outs that look alike come from different tables or passages of the source.
What was measured:
[1] = test system: human, mouse, or rat PPAR-γ; experiment: PPAR-γ reporter gene assays comparing human, mouse and rat PPAR-γ (data not shown); format: cell-based
Procedure: For a pool sufficient to supply 100 wells, 6 million cells were diluted into medium for a total volume of 9 mL. The DNA-Lipofectamine 2000 mixture was prepared as per manufacturer’s instructions. For a pool sufficient to supply 100 wells, 5 μg Gal 4-Mouse PPAR-γ LBD, 5 μg pFR-Luciferase, and 500 ng Lac-z plasmids were mixed with 40 μL of Lipofectamine 2000 in Optimem medium in a total volume of 1 mL. The cell suspension was mixed with 1 mL of the DNA-Lipofectamine 2000 mixture. The mixture was plated into a 96-well plate and incubated for 4 hours at which time the transfection medium was removed and replaced with 100 μL DMEM, 10% (v/v) FBS and cultured overnight. The culture medium was then removed from the plates and replaced with 50 μL Pro293A medium. […] Measurement of luciferase and fluorescence activity was performed according to the manufacturer’s instructions. […] An 80 μL lysate aliquot was transferred to opaque white well plates and the luminescence measured. […] Each experimental condition was assessed in quadruplicate. The data were normalized for each well by dividing the luminescence measurement by the fluorescence measurement. Dose-response curves were generated and EC50 values were calculated using Prism Graphpad version 5.1.

[2] = molecular target: T1, mouse serum albumin (Mus musculus, UniProt P07724); experiment: Albumin binding by surface plasmon resonance (SPR), MSA
T1 construct: purchased Sigma
Procedure: (§1) The characterization of the binding of MBX-102 acid against human, mouse, and rat albumin was performed using SPR-based biosensors (Biosensor Tools, Salt Lake City, Utah, USA). The assay methods used to assess the binding of MBX-102 acid to human, mouse, and rat albumins have been described previously. Briefly, each albumin was immobilized onto a CM5 sensor chip using standard amine coupling. Immobilization densities were between 10 000 and 13 000 RU. […] Each of the 16 different concentrations was tested in duplicate. […] All binding data were collected at 37°C. The binding response profile of MBX-102 acid over the three different albumin surfaces was evaluated and the binding constants for the high-affinity site were determined using a two-independent-site model. Conversion from KD to %bound was performed as previously described.

[3] = molecular target: T2, Gal 4-Mouse PPAR-γ LBD (Mus musculus, UniProt P37238); experiment: PPAR-γ reporter gene (transactivation) assay in HEK-293T cells with serum or serum proteins; format: cell-based
T2 construct: 5 μg Gal 4-Mouse PPAR-γ LBD; expressed in transfected cells; host or cells: HEK-293T
T2 sequence (P37238 238-503 limits assumed): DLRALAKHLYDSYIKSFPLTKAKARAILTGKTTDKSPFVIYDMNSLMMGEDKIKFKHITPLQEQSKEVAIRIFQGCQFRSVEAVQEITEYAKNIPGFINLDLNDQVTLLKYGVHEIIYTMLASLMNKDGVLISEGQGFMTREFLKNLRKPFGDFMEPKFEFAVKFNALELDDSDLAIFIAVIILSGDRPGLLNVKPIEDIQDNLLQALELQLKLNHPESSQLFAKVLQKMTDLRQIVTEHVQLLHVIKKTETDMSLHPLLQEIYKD
Procedure: All cells were maintained at 37°C in a humidified atmosphere of 8% CO2 in air.
For a pool sufficient to supply 100 wells, 6 million cells were diluted into medium for a total volume of 9 mL. The DNA-Lipofectamine 2000 mixture was prepared as per manufacturer’s instructions. For a pool sufficient to supply 100 wells, 5 μg Gal 4-Mouse PPAR-γ LBD, 5 μg pFR-Luciferase, and 500 ng Lac-z plasmids were mixed with 40 μL of Lipofectamine 2000 in Optimem medium in a total volume of 1 mL. The cell suspension was mixed with 1 mL of the DNA-Lipofectamine 2000 mixture. The mixture was plated into a 96-well plate and incubated for 4 hours at which time the transfection medium was removed and replaced with 100 μL DMEM, 10% (v/v) FBS and cultured overnight. The culture medium was then removed from the plates and replaced with 50 μL Pro293A medium. Compounds and charcoal stripped/delipidated serum or serum albumin, or alpha-1 acid glycoprotein stock solutions were prepared at 2X final concentration in Pro293A medium and mixed together prior to addition of 50 μL to the transfected cells and incubated for an additional 24 hours. Measurement of luciferase and fluorescence activity was performed according to the manufacturer’s instructions. Briefly, after removal of media, cells were incubated for 10 minutes in 100 μL of Steady-Glo reagent. An 80 μL lysate aliquot was transferred to opaque white well plates and the luminescence measured. The 80 μL aliquot was then transferred back to the original plate. […] Each experimental condition was assessed in quadruplicate. The data were normalized for each well by dividing the luminescence measurement by the fluorescence measurement. Dose-response curves were generated and EC50 values were calculated using Prism Graphpad version 5.1.

[4] = Plasma protein binding by equilibrium dialysis, mouse plasma; format: in vitro ADME, CD-1 mice; settings: equilibrium dialysis vs PBS, 37°C, read-out: %Protein Binding ± SD (converted)
Procedure: (§2) Radiolabeled MBX-102 acid was prepared as a 1 mL ethanol solution at a concentration of 50 μM (1 mCi total). […] Final solvent concentrations were 1% of the total volume. Plasma was stored at −20°C. Prior to use, it was thawed and spun at approximately 2000 rpm for 5 minutes to remove any precipitated material. The pH was adjusted to pH 7.4 by careful addition of NaH2PO4. A 1 mL sample of spiked plasma was prepared by direct dilution of [^3H]-MBX-102 acid stock solution into plasma and then added to one side of an equilibrium dialysis chamber. The other chamber was filled with 1 mL of 0.01 M phosphate buffered saline (PBS). The dialysis apparatus was placed in a water bath at 37°C and rotated at 20 rpm. […] Once equilibrium was established, the contents of the cell chambers were removed and analyzed by liquid scintillation counting. The chambers were sampled in triplicate. […] The recovery percentage was found not to vary with MBX-102 acid concentration.

[5] = Plasma protein binding by equilibrium dialysis, human plasma; format: in vitro ADME; settings: equilibrium dialysis vs PBS, 37°C, read-out: %Protein Binding ± SD (converted)
Procedure: as §2

[6] = molecular target: T3, rat serum albumin (Rattus norvegicus, UniProt P02770); experiment: Albumin binding by surface plasmon resonance (SPR), RSA
T3 construct: purchased Sigma
Procedure: as §1

T3 sequence (P02770 25-608): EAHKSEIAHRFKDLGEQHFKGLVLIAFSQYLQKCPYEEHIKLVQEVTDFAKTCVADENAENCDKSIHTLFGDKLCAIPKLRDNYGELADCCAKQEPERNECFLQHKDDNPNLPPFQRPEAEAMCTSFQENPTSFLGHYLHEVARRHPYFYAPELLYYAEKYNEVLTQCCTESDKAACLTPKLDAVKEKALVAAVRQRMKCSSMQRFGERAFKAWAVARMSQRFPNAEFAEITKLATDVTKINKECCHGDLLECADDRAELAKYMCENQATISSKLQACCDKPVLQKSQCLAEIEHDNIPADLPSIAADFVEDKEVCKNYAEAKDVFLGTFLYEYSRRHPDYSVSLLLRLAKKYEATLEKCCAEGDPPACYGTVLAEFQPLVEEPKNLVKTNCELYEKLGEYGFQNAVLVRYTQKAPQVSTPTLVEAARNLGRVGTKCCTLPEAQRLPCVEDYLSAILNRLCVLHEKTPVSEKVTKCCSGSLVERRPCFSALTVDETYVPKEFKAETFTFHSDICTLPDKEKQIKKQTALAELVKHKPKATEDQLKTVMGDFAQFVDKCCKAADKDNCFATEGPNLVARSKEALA
T1 sequence (P07724 25-608): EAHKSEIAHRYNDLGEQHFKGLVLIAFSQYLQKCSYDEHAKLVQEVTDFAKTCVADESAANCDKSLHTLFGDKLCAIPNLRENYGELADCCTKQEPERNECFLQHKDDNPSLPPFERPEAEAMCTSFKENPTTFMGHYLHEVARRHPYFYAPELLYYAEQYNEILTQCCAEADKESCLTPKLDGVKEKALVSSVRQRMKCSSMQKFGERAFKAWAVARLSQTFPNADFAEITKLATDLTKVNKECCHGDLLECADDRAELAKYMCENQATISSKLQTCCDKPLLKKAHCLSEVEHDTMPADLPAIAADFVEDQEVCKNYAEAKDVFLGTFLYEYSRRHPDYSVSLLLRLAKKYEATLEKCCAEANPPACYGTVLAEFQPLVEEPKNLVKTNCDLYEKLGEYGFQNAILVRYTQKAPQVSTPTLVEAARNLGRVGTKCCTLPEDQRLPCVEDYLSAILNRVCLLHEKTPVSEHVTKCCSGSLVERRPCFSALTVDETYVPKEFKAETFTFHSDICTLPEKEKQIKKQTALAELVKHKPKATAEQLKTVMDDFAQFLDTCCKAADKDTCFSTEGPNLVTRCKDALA

SMILES: O=C(O)[C@H](Oc1cccc(C(F)(F)F)c1)c1ccc(Cl)cc1 (stereo in doubt) [MBX-102 acid]
- intrinsic differences in ability to activate human, mouse, or rat PPAR-γ [1]: no intrinsic differences
- %Bound ([2]; converted from KD): 99.2%
- Kd ([2]; high-affinity site, two-independent-site model, 37°C, pH 7.4): 5.5 µM
- EC50 ([3]; 0% human serum albumin (Figure 3), 2–6 experiments, mean ± SD, read-out: EC50 PPAR-γ activation): 14.4 ± 2.5 µM
- EC50 ([3]; 0% serum (Figure 2), 3 experiments, mean ± SD, read-out: EC50 PPAR-γ activation): 15.1 ± 1.9 µM
- EC50 ([3]; 0.08% human serum albumin (Figure 3), 2–6 experiments, mean ± SD, read-out: EC50 PPAR-γ activation): 44 ± 5.6 µM
- EC50 ([3]; 2% (v/v) human serum (Figure 2), 3 experiments, mean ± SD, read-out: EC50 PPAR-γ activation): 43.5 ± 6.9 µM
- fold change in mean EC50 relative to no serum ([3]; 2% human serum): 3 fold
- EC50 ([3]; 10% (v/v) human serum (Figure 2), 3 experiments, mean ± SD, read-out: EC50 PPAR-γ activation): 288 ± 39.6 µM
- fold change in mean EC50 relative to no serum ([3]; 10% human serum): 19 fold
- EC50 ([3]; 10% human serum (Table 4, Figure 4), 3 experiments, read-out: Mean EC50 ± SD, Human): 260 ± 16.9 µM
- EC50 ([3]; 10% mouse serum (Table 4, Figure 4), 3 experiments, read-out: Mean EC50 ± SD, Mouse): 170 µM
- EC50 ([3]; 10% rat serum (Table 4, Figure 4), 3 experiments, read-out: Mean EC50 ± SD, Rat): 196 ± 18 µM
- EC50 ([3]; 20% (v/v) human serum (Figure 2), 3 experiments, mean ± SD, read-out: EC50 PPAR-γ activation): 442 ± 29.8 µM
- fold change in mean EC50 relative to no serum ([3]; 20% human serum): 29 fold
- fraction unbound at 400 µM ([4]; CD-1, pH 7.4, MBX-102 acid 400 μM): 0.002
- fraction unbound at 600 µM ([4]; CD-1, pH 7.4, MBX-102 acid 600 μM): 0.003
- fraction unbound at 1000 µM ([4]; CD-1, pH 7.4, MBX-102 acid 1000 μM): 0.005
- fraction unbound at 1500 µM ([4]; CD-1, pH 7.4, MBX-102 acid 1500 μM): 0.002
- fraction unbound at 2000 µM ([4]; CD-1, pH 7.4, MBX-102 acid 2000 μM): 0.005
- fraction unbound at 400 µM ([5]; pH 7.4, MBX-102 acid 400 μM): 0.002
- fraction unbound at 600 µM ([5]; pH 7.4, MBX-102 acid 600 μM): 0.002
- fraction unbound at 1000 µM ([5]; pH 7.4, MBX-102 acid 1000 μM): 0.003
- fraction unbound at 2000 µM ([5]; pH 7.4, MBX-102 acid 2000 μM): 0.002
- %Bound ([6]; RSA, converted from KD): 98.1%
- Kd ([6]; RSA, high-affinity site, two-independent-site model, 37°C, pH 7.4): 12.8 µM
- fraction unbound ([6]; rat, rat serum albumin immobilized on a CM5 sensor chip, pH 7.4, RSA, converted from KD, read-out: %Bound): < 0.02

From paper PMC2535826, “Cross-Species Differential Plasma Protein Binding of MBX-102/JNJ39659100: A Novel PPAR-γ Agonist” (PPAR Research, 2008)
